The values that follow come from US20210205292A1, “INHIBITORS OF CREB-CBP INTERACTION FOR TREATMENT OF LEUKEMIA” (The Board of Trustees of the Leland Stanford Junior …, priority 2016, published 2021).

“And” between values parts separate entries of the source, which are not always exact repeats. Identical values can stand only once.

Test [1] deals with T1, CREB-CBP binding (KID-KIX) (Homo sapiens, UniProt Q92793).
T1 construct: the KID and KIX domains were fused to the N- and C-terminal regions of Renilla luciferase, respectively; expressed in transfected cells; host or cells: 293T cells treated with forskolin
The experiment in a line: Split Renilla luciferase complementation assay. It counts as cell-based. The settings on record: 293T cells treated with forskolin; read-out: IC50, inhibition of the interaction between CREB and CBP. As for the experimental part: (§1) KG-1 cell lines were created to express luciferase in a CREB-dependent or non-CREB-dependent fashion using lentiviral gene delivery. Cells were sorted for mCherry expression by flow cytometry and selected with puromycin. Luciferase activity was measured on a […] using the Promega Luciferase Activity Kit (Promega) per manufacturer's instructions following six hours of treatment with Compound A or 0.1% DMSO. The split Renilla luciferase complementation assay has been described previously (Li BX, and Xiao X. Discovery of a small-molecule inhibitor of the KIX-KID interaction. Chembiochem: a European journal of chemical biology. 2009; 10(17):2721-4). In this assay, the KID and KIX domains were fused to the N- and C-terminal regions of Renilla luciferase, respectively. Once KIX binds phosphorylated KID, the Renilla luciferase regions were brought together, resulting in luciferase activity.
(§2) To test the ability of Compound A to disrupt CREB-CBP binding in cells, a split Renilla luciferase complementation assay was performed. […] This early timepoint was selected to permit accurate reporter gene activity measurement prior to the onset of anticipated global cell dysfunction or death induced by Compound A. Treatment with 3 μM Compound A reduced luciferase activity by 33.2±7.7% at this timepoint. […] Thus, Compound A inhibits CREB function through disruption of CREB:CBP interaction.

The subject of the next test is CMV-driven promoter. Description: CMV-driven luciferase reporter in KG-1 cells. It counts as cell-based. The settings on record: 6 hours. As for the experimental part: as §1, §2
For orientation: In a reporter assay the amount or activity of a reporter protein is the signal.

In general, IC50 refers to the concentration that inhibits the measured activity by half.

T1 sequence (Q92793 587-666 limits assumed): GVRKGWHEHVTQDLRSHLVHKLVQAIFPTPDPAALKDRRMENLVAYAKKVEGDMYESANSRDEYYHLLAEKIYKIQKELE

For `N#Cc1ccc(NC(=O)c2cc3ccccc3cc2O)cc1` [Compound A, N-(4-cyanophenyl)-3-hydroxy-2-naphthamide], the IC50 in test [1] is ~3.2 µM and 3.2 µM. In the test with CMV-driven promoter, the CMV-driven luciferase expression result is reported as “unchanged”.
